Data: patent US9187406B2 (The Research Foundation of State University of New York, priority 2009, dated 2015)
“Also recorded” adds a separate entry of the source. Read-outs that look alike come from different tables or passages of the source.

Experiments:
[1] = tested on: neonatal rat ventricular myocytes; experiment: Hydrogen peroxide induced LDH release; assay type: cell-based; settings: 10 μM, H2O2 100 μM
Protocol: Test compounds and concentrations (MMP inhibitors, MMPi): • 1. GM-6001: 10 μM • 2. ONO-4817: 10 μM • 3.
Neonatal rat ventricular myocytes, serum starved for 24 h, were treated with the inhibitors 1 h prior to the addition of 100 μM of hydrogen peroxide (Sigma). LDH release in the conditioned media was quantified using CytoTox-ONE Homogeneous Membrane Integrity Assay reagent (Promega) at the indicated time points.

[2] = molecular target: chromatographically-purified MMP-2 (Homo sapiens (Human), UniProt P08253); experiment: MMP-2 inhibition in vitro, octapeptide/HPLC; assay type: biochemical; settings: for Ratio = IC50 test compound/IC50 standard, MMP-2: standard 1,10-phenanthroline
[3] = molecular target: chromatographically-purified MMP-13 (Collagenase-3) (Homo sapiens (Human), UniProt P45452); experiment: MMP-13 inhibition in vitro, octapeptide/HPLC; assay type: biochemical; settings: for Ratio = IC50 test compound/IC50 standard, MMP-13: standard 1,10-phenanthroline
[4] = molecular target: purified human PMN MMP-8 (Homo sapiens (Human), UniProt P22894); experiment: MMP-8 inhibition, synthetic octapeptide substrate, tripeptide product by HPLC; assay type: biochemical
[5] = molecular target: MMP-9 (human leukocyte gelatinase) (Homo sapiens (Human), UniProt P14780); experiment: MMP-9 inhibition in vitro, octapeptide/HPLC; assay type: biochemical
Description: In contrast all three chemically-modified curcumins at 100 μm final concentration inhibited gelatinase activity by 68-100% (FIG. 6 and Table 6).

[6] = Solubility in aqueous solutions; assay type: physicochemical
[7] = tested on: TNF-α; experiment: TNF-α production by LPS-stimulated monocytes (ELISA); assay type: cell-based, human
Protocol: (§1) Briefly, human peripheral blood monocytes (HMs) were isolated from a leukocyte concentrate by density gradient centrifugation (Lymphoprep) and the isolated HMs cultured (2 h, 37° C.) to remove non-adherent cells. The adherent HMs were cultured for 18 h (1×10^6 cells/well, 24-well plates)±endotoxin (LPS)±different compounds dissolved in DMSO (the final concentration of DMSO in the RPMI serum-free culture media with Pen./Strep. antibiotics was no greater than 0.5%). After incubation, the proinflammatory cytokines, TNFα, IL-1β, MCP-1 and IL-6 were measured in the conditioned media by ELISA and cytotoxicity was assessed by measuring the absorbance (490 nm) of formazan produced by reduction of MTS. The HMs alone ±0.1-0.5% DMSO produced minimal levels of these pro-inflammatory cytokines. However, addition of 100 ng/ml or 10 μg/ml of LPS both dramatically stimulated cytokine production.

[8] = tested on: human monocytes; experiment: Cytotoxicity in human monocytes (MTS); assay type: cell-based
Protocol: as §1

[9] = molecular target: MMP-2 (Mus musculus (Mouse), UniProt P33434); settings: 15 μM; cited from earlier work
[10] = Extractability/recovery from human serum by HPLC
Protocol: Detection of compounds & extractability/recovery from human serum (for future use to determine in vivo pharmacokinetics) was achieved using HPLC. The HPLC detection method is briefly described herein. 50 μl of buffer or human serum containing 166.67 μM, 16.67 μM and 1.67 μM of the compounds were incubated with 100 μl pre-cooled (−10° C.) extraction solvent containing CAN-MeOH-0.5M oxalic acid at a ratio of 60:30:10. The mixture was vortexed and centrifuged at 10,000 rpm for 10 min. The supernatant was then aliquoted and injected into an HPLC for analysis. Stock solutions of the compounds were made 100× in DMSO, then further diluted with buffer or serum.

[11] = tested on: human monocytes; experiment: Cytotoxicity in human monocytes (MTS); assay type: cell-based; remark: listed apart in the source

purified human PMN MMP-8, sequence (P22894 101-467): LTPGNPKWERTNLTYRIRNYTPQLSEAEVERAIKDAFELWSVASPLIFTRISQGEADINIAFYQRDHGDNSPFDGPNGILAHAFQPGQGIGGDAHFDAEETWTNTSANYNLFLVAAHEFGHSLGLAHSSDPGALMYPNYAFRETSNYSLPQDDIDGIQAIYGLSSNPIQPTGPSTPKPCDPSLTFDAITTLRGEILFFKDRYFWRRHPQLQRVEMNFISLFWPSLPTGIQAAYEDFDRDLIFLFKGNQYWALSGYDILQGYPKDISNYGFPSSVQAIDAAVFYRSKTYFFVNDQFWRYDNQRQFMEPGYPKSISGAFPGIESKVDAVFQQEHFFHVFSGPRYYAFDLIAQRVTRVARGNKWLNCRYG
chromatographically-purified MMP-2, sequence (P08253 110-660): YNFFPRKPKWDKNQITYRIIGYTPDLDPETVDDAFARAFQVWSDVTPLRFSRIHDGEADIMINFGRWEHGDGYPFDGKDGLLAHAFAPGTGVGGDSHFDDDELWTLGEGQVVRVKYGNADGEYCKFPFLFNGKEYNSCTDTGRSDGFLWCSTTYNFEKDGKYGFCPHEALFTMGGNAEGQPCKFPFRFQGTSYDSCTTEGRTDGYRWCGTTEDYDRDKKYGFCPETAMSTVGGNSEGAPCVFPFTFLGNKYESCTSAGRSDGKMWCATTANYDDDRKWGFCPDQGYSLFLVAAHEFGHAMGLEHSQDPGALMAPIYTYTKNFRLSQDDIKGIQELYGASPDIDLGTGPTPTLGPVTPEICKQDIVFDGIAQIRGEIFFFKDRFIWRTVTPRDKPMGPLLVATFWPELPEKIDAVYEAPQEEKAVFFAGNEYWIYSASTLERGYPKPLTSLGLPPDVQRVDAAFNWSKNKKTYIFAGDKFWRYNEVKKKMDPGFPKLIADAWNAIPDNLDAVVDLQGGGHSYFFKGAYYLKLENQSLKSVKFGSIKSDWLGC
MMP-9 (human leukocyte gelatinase), sequence (P14780 94-707): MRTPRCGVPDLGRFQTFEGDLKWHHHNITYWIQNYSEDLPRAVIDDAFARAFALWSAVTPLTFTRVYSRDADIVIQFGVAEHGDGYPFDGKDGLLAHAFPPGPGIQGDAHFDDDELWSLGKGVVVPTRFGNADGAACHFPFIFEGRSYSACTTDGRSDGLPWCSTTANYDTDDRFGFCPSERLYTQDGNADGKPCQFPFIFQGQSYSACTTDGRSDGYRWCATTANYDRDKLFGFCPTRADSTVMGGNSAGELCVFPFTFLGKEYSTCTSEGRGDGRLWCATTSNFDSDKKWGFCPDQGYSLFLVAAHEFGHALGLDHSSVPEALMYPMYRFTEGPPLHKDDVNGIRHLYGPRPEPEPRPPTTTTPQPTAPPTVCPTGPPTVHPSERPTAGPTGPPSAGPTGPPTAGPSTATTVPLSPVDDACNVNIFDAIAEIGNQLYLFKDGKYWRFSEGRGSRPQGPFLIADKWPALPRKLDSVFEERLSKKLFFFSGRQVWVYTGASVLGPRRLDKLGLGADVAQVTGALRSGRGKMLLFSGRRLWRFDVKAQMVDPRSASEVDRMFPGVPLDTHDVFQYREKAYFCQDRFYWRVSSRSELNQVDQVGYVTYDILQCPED

| Structure (SMILES) | IC50 ([2]; read-out: IC50 MMP-2) [µM] | Ratio = IC50 test compound/IC50 standard, MMP-2 [2] | IC50 [3] [µM] | Ratio = IC50 test compound/IC50 standard, MMP-13 [3] | IC50 [5] [µM] | also measured |
| --- | --- | --- | --- | --- | --- | --- |
| CCOCOC[C@H](C[C@H](C)C(=O)NO)NC(=O)c1ccc(Oc2ccccc2)cc1 [ONO-4817, reference compound] |  |  |  |  |  | Effect on LDH release [1]: did not affect LDH release |
| COC(=O)C(C(=O)/C=C/c1ccccc1)C(=O)/C=C/c1ccccc1 [Compound 2] |  |  |  |  |  | IC50 against purified hMMP-8 ([4]; Table 1 experiments): did not show a dose response; also recorded: No dose response |
| c1cnc2c(c1)ccc1cccnc12 [1,10-O-phenanthroline, reference compound] | 70 | 1.0 | 4 | 1.0 | 9 | IC50 ([4]; Table 1 experiments, read-out: IC50 against purified hMMP-8): 10 to 35 µM; Ratio of each IC50 to IC50 of 1,10-O-phenanthroline ([4]; hMMP-8): 1 = 35 μM 1 = 10 μM |
| COc1cc(/C=C/C(=O)CC(=O)/C=C/c2ccc(N(C)C)cc2)ccc1O [Compound 4] | > 250 | >3.6 | 250 | 62.5 | 17 |  |
| COC(=O)C(C(=O)/C=C/c1ccc(O)cc1)C(=O)/C=C/c1ccc(O)cc1 [Compound 3, 1,7-Bis(4-hydroxyphenyl)-4-methoxycarbonylhepta-1E,6E-dien-3,5-dione] | 70 | 1.0 | 8 | 2.0 | 6 | Solubility in aqueous solutions (comparative) [6]: more soluble in aqueous solutions than compound 1; IC50 ([4]; Example 7 experiment, 1 mM Ca++, 37° C., read-out: IC50, human neutrophil collagenase (MMP-8)): ≤ 5 µM |
| CNC(=O)[C@H](Cc1c[nH]c2ccccc12)NC(=O)[C@@H](CC(=O)NO)CC(C)C [GM-6001, reference compound] |  |  |  |  |  | Effect on LDH release [1]: did not affect LDH release |

Continued, in another order:

| IC50 ([2]; read-out: IC50 MMP-2) [µM] | Ratio = IC50 test compound/IC50 standard, MMP-2 [2] | IC50 [3] [µM] | Ratio = IC50 test compound/IC50 standard, MMP-13 [3] | IC50 [5] [µM] | Structure (SMILES) | also measured |
| --- | --- | --- | --- | --- | --- | --- |
| 125 | 1.8 | < 1 | <0.3 |  | O=C(/C=C/c1ccc(O)cc1)C(C(=O)/C=C/c1ccc(O)cc1)C(=O)Nc1ccccc1 [Compound 7, 1,7-Bis(4-hydroxyphenyl)-4-N-phenylaminocarbonylhepta-1E,6E-dien-3,5-dione] |  |
| 85 |  |  |  |  | COc1cc(/C=C/C(=O)C(C(=O)/C=C/c2ccc(O)c(OC)c2)C(=O)Nc2ccccc2)ccc1O [Compound 6, 1,7-Bis(4-hydroxy-3-methoxyphenyl)-4-N-phenylaminocarbonylhepta-1E,6E-dien-3,5-dione] |  |
|  |  |  |  | 29 | COc1cc(/C=C/C(=O)CC(=O)/C=C/c2ccc(O)c(OC)c2)ccc1O [curcumin] | Solubility in aqueous solutions (comparative) [6]: insoluble; IC50 [2]: 85 µM; Decrease of TNFα production by endotoxin-stimulated human monocytes ([7]; 10 and 20 μM): no effect; Decrease of TNFα production by endotoxin-stimulated human monocytes ([7]; 50 and 100 μM): 80-90%; Maximum Inhibition At 100 μM compound, MMP-9 ([5]; 100 μM): 58%; Cytotoxicity Monocytes @ 18 h incubation ([8]; 10 uM): 10 uM- 0%; Cytotoxicity Monocytes @ 18 h incubation ([8]; 20 uM): 20 uM- 20%; Cytotoxicity Monocytes @ 18 h incubation ([8]; 50 uM): 50 uM- 77%; Cytotoxicity in human monocyte culture ([8]; 50 and 100 μM): significant cytotoxicity; Effect on MMP-2 activity [9]: significant inhibitory effect; Recovery from human serum ([10]; HPLC after solvent extraction): 83-94%; recovery ([10]; human, human serum): 83 to 94%; Cytotoxicity Monocytes @ 5 h incubation ([11]; 10 uM): 10 uM- 0%; Cytotoxicity Monocytes @ 5 h incubation ([11]; 20 uM): 20 uM- 20%; Cytotoxicity Monocytes @ 5 h incubation ([11]; 50 uM): 50 uM- 50% |
|  |  | 45 | 11.3 |  | CN(C)c1ccc(/C=C/C(=O)C(C(=O)/C=C/c2ccc(N(C)C)cc2)C(=O)Nc2ccccc2)cc1 [Compound 8, 1,7-Bis(4-dimethylaminophenyl)-4-N-phenylaminocarbonylhepta-1E,6E-dien-3,5-dione] | IC50 MMP-2 (μM) [2]: Unmeasurable* |
